In patent US20250042866A1, “CRYSTAL FORM OF BLARCAMESINE HYDROCHLORIDE, METHOD FOR PREPARING SAME, AND USE THEROF” (CRYSTAL PHARMACEUTICAL (SUZHOU) CO., LTD., priority 2022, published 2025):
“Also recorded” adds a separate entry of the source.

Assays:
Type in all cases: physicochemical
[1] = Flowability (compressibility index / Carr index); conditions: criteria of ICH Q4B Annex 13, by compressibility index
Description: The bulk density ρ0 was calculated with the formula “bulk density ρ0=powder mass/volume before tapped”. […] The tapped density pf was calculated with the formula “tapped density ρf=powder mass/volume after tapped”. The degree of compression (c), also known as Compressibility index or Carr index, was calculated based on the measured bulk density and tap density of the sample with the formula c=(ρf-ρ0)/ρf*100%.
The bulk density ρ0 was calculated with the formula “bulk density ρ0=powder mass/volume before tapped”. […] The tapped density pf was calculated with the formula “tapped density ρf=powder mass/volume after tapped”. The degree of compression (c), also known as Compressibility index or Carr index, was calculated based on the measured bulk density and tap density of the sample with the formula c=(pf-ρ0)/ρf*100%.

[2] = Storage stability of drug substance (HPLC purity and XRPD form); conditions: for chemical purity during storage: 40° C./75% RH and 60° C./75% RH
Description: Chemical purity and crystalline form were tested by HPLC and XRPD respectively.
Open: the sample was placed into a glass vial, and the vial was covered by aluminum foil with holes.
Sealed with desiccants: the sample was placed into a glass vial, and the vial was covered by aluminum foil with holes, then the vial was sealed into an aluminum foil bag with 1 g of silica gel desiccant.
An appropriate amount of Form CSIV of the present disclosure were stored under different conditions of 25° C./60% RH, 40° C./75% RH and 60° C./75% RH. Chemical purity and crystalline form were test by HPLC and XRPD respectively. […] Form CSIV is stable after storage under 40° C./75% RH condition for at least 6 months, indicating Form CSIV has good stability under accelerated condition. Form CSIV is stable after storage under 60° C./75% RH condition for at least 2 weeks, indicating Form CSIV has good stability under stress condition.

[3] = Light stability (HPLC purity and XRPD form); conditions: for Initial purity: before light exposure; for Purity / Solid form: light 8 k Lux, UV 1.5 w/m^2, 2 weeks; for Purity: HPLC; for Solid form: XRPD
Source text: An appropriate amount of Form CSIV of the present disclosure was placed in a light stability chamber with the following setting values: light: 8 k Lux, UV: 1.5 w/m^2.

[4] = Compressibility: tensile strength of compressed tablets; conditions: 80 mg, Φ6 mm round tooling, 3 kN, after 24 hours at room temperature; T=2H/πDL
Description: The samples were pressed by the ENERPAC single punch manual tablet press. […] The elastic recovery was completed after storage at room temperature for 24 hours, then the diameter (D) and thickness (L) of the tablet was measured by a caliper, and the hardness (H) was tested with a tablet hardness tester. Tensile strength of the powder was calculated with the following formula: T=2H/πDL. Under a certain force, the greater the tensile strength, the better the compressibility.

[5] = Stability upon mechanical force: ball milling; conditions: XRPD
[6] = Crystalline form stability in the formulation process; conditions: dry granulation simulation 5 ± 1 kN, blending, capsule filling; XRPD
[7] = Stability upon mechanical force: tableting under different pressures; conditions: XRPD
Description: An appropriate amount of Form CSII was compressed into tablets under different pressures with suitable tableting die. Crystalline form before and after tableting were tested by XRPD.
An appropriate amount of Form CSIII was compressed into tablets under different pressures with suitable tableting die. Crystalline form before and after tableting were tested by XRPD.

[8] = Hygroscopicity by dynamic vapor sorption (DVS); conditions: 25° C., cycle 0% RH-95% RH-0% RH, about 10 mg
Description: DVS data in the present disclosure were measured via an SMS (Surface Measurement Systems Ltd.) intrinsic DVS instrument. The instrument control software is DVS-Intrinsic control software. Typical Parameters for DVS test are as follows: • Temperature: 25° C. • Gas and flow rate: N2, 200 mL/min • RH range: 0% RH to 95% RH
The mass change at each relative humidity were recorded in a cycle of 0% RH-95% RH-0% RH.

[9] = Solubility in organic solvents, step-wise solvent addition; conditions: organic solvent or mixture, thermodynamic from solid; Ethyl acetate; room temperature; as mass of Compound I
Description: (§1) The weight of solid (m), the undissolved volume (v1) and the dissolved volume (v2) were recorded respectively.
as §1

[10] = 25° C./60% RH, long-term condition
[11] = 25° C./60% RH, sealed with desiccants, 6 months
[12] = 40° C./75% RH, accelerated condition
[13] = 40° C./75% RH, sealed with desiccants, 6 months
[14] = 60° C./75% RH, sealed with desiccants, 2 weeks
[15] = 60° C./75% RH, stress condition
[16] = 5 minutes at a vibration speed of 500 rpm
[17] = 25° C./60% RH, sealed with desiccants, 9 months

Flowability [1]	time for which the drug substance is stable (crystalline state unchanged) [2, 10]	chemical purity during storage [2]	time for which the drug substance is stable (crystalline state unchanged) [2, 12]	Purity [2, 13] [%]	time for which the drug substance is stable (crystalline state unchanged) [2, 15]	Purity ([2]; Initial) [%]	Initial purity [3] [%]	Purity [3] [%]	Tensile strength [4] [MPa]	form change after ball milling [5, 16]	Purity ([2]; 25° C./60% RH, open, 9 months) [%]	Purity [2, 17] [%]	Crystalline form after tableting ([7]; Pressure 5 kN)	Crystalline form after tableting ([7]; Pressure 10 kN)	Crystalline form after tableting ([7]; Pressure 20 kN)	Mass increase under 70% RH [8] [%]	SMILES	Solid form [3]	crystalline form before and after the formulation process [6]	also measured
Excellent (≤10)	at least 6 months	above 99.9%	at least 6 months	99.93	at least 2 weeks	99.95	99.92	99.92	0.705	no form change	–	–	–	–	–	–	CN(C)CC1CCOC1(c1ccccc1)c1ccccc1.CN(C)CC1CCOC1(c1ccccc1)c1ccccc1.Cl.Cl.O=C(O)CC(O)C(=O)O (racemic) [Form CSIV]	remains unchanged; also recorded: Form CSIV	–	Purity [2, 11]: 99.92%; Solid form [2, 11]: Form CSIV; Solid form [2, 13]: Form CSIV; Purity [2, 14]: 99.98%; Solid form [2, 14]: Form CSIV; Solid form ([2]; Initial): Form CSIV
Fair (16-20)	at least 9 months	above 99%	at least 3 months	–	at least 2 month	99.86	99.83	99.76	0.707	–	99.91	99.92	Form CSIII	Form CSIII	Form CSIII	–	CN(C)CC1CCOC1(c1ccccc1)c1ccccc1.Cl.O=C(O)CC(O)(CC(=O)O)C(=O)O (centres unmarked) [Form CSIII]	remains unchanged; also recorded: Form CSIII	stable before and after the formulation process	Purity ([2]; 40° C./75% RH, sealed with desiccants, 3 months): 99.91%; Purity ([2]; 60° C./75% RH, sealed with desiccants, 2 months): 99.86%; form change after ball milling ([5]; vibration speed of 300 rpm): no form change
–	at least 9 months	above 99.9%	at least 6 months	99.90	–	99.96	99.97	99.97	0.705	no form change	99.90	99.95	Form CSII	Form CSII	Form CSII	0.24	CN(C)CC1CCOC1(c1ccccc1)c1ccccc1.CN(C)CC1CCOC1(c1ccccc1)c1ccccc1.Cl.Cl.O=C(O)C(O)C(O)C(=O)O (centres unmarked) [Form CSII]	remains unchanged; also recorded: Form CSII	stable before and after the formulation process	Purity ([2]; 60° C./75% RH, sealed with desiccants, 1 month): 99.94%
Poor	–	–	–	–	–	–	–	–	0.552	–	–	–	–	–	–	0.54	CN(C)CC1CCOC1(c1ccccc1)c1ccccc1 (centres unmarked) [Form I in the prior art, tetrahydro-N,N-dimethyl-2,2-diphenyl-3-furanmethanamine, reference compound]	–	–	solubility [9]: < 1500 µg/mL
